The values below come from patent US9845482B2, “Compositions and methods for enhancing bioenergetic status in female germ cells” (The General Hospital Corporation, priority 2011, dated 2017).

Holding throughout (format): in vivo
Assay [1] deals with oocytes of aged female mice (C57BL/6). In words: Dietary supplementation of aged female mice: mitochondrial distribution in oocytes. The note with it: for percentage of oocytes exhibiting abnormal mitochondrial clustering (change): compared to Hist 12 M; for abnormal mitochondrial distribution, present in % of oocytes: diet for 3 months, apigenin 0.5 g/kg, luteolin 0.5 g/kg, SRT-1720 2 g/kg. How it is done: Whether mitochondrial aggregation, which has been linked to the decline in oocyte quality with advancing age (Tarín et al. Biol Reprod 2001 65:141-150), was affected by caloric intake was assessed. Oocytes were denuded of cumulus cells, incubated in MitoTracker Red CMRox (Life Technologies), and processed for microscopic analysis. Levels of ATP in individual MII oocytes were determined using a commercially available bioluminescent assay kit under the manufacturer's specifications (Sigma Aldrich Corporation, St. Louis, Mo., USA).
(§1) Female mice (8 months old, strain C57BL/6) were maintained on a 12:12 light dark cycle and provided ad-libitum access to water and food. Conditions within rooms were maintained at 21°±1° C. with 50%±20% relative humidity. Mice were placed on the experimental diets at 8.5 months of age and were maintained for 3 months on the diets. All diets were custom made, ordered from Research Diets: OpenStandard Diet (20 kcal % Protein, 15 kcal % Fat and 65 kcal % Carbohydrate) and the experimental groups consisted of regular OpenStandard Diet, OpenStandard Diet+Apigenin at 0.5 g/kg of body weight, OpenStandard Diet+Luteolin at 0.5 g/kg, and OpenStandard Diet+SRT-1720 at 2 g/kg. Food intake was measured weekly and average weight gain was assessed every two weeks. Each experimental group consisted of 12 randomly allocated mice. When mice were euthanized an additional group of 3-month old C57BL/6 females (3 M) were used as positive controls. In all groups, oocyte numbers were assessed following hormonal stimulation for superovulation.
(§2) Methods for determining spindle abnormalities and chromosomal misalignment are described above in Example 8. Abnormal mitochondrial distribution was determined to be present in 16.13% of oocytes from 3 M mice, 46% of oocytes from Hist 12 M mice, 7.7% of oocytes following supplementation with apigenenin, 12% of oocytes following supplementation with luteolin and 6.9% of oocytes following supplementation with SRT-1720. Spindle abnormalities were determined to be present in 18.3% of oocytes in 3 M mice, 60% of oocytes in Hist 12 M mice, 32% of oocytes following supplementation with apigenenin, 32% of oocytes following supplementation with luteolin and 32.8% of oocytes following supplementation with SRT-1720. Chromosomal misalignment was determined to be present 18.3% of oocytes in 3 M mice, 62% of oocytes in Hist 12 M mice, 44% of oocytes from mice supplemented with apigenenin, 40% of oocytes following supplementation with luteolin and 40.9% of oocytes following supplementation with SRT-1720.

The test system of assay [2] is MII oocytes of aged female mice (C57BL/6). In words: Dietary supplementation of aged female mice: spindle abnormalities and chromosomal misalignment in MII oocytes. The note with it: for chromosomal misalignment in MII oocytes (change) / percentage of spindle abnormalities in MII oocytes (change): compared to Hist 12 M; for chromosomal misalignment, present in % of oocytes / spindle abnormalities, present in % of oocytes: diet for 3 months, apigenin 0.5 g/kg, luteolin 0.5 g/kg, SRT-1720 2 g/kg. How it is done: Confocal analysis of α-tubulin and DNA distribution were examined. Superovulated oocytes were denuded of cumulus cells, briefly incubated in Acidified Tyrode's Solution (Irvine Scientific, Santa Ana, Calif., USA) to soften the zona pellucida, and immunostained using mouse anti-α-tubulin antibody (Sigma Aldrich Corporation, St. Louis, Mo., USA) followed by goat anti-mouse IgG conjugated with Alexa Fluor-488 (Life Technologies, Carlsbad, Calif.). Oocytes were mounted using Vectashield containing propidium iodide (PI; Vector Laboratories) and analyzed by confocal microscopy.
as §1, §2

Assay [3] concerns aged female mice (C57BL/6). Put plainly: Dietary supplementation of aged female mice: oocyte yield, maturation and quality after superovulation. As to conditions: for percentage of mature, metaphase II oocytes retrieved following superovulation / quality of oocytes in aged mice: compared to age appropriate controls (Hist 12 M); for oocyte yield: diet for 3 months from 8.5 months of age, apigenin 0.5 g/kg, luteolin 0.5 g/kg, SRT-1720 2 g/kg, superovulation.
From the text: Yield, maturational status and post-fertilization developmental competency of oocytes obtained from 12-month-old (aged) female mice returned to an ad-libitum (AL) diet for 1 month following 7.5 months of dietary CR (CR-AL-fed) initiated in a stepwise fashion at 3.5 months of age were first evaluated. This protocol was based on prior work showing that female mice maintained on CR during adulthood continue to breed and deliver offspring into advanced ages after their return to an AL diet (Selesniemi et al. 2008 Aging Cell 7:622-629). Mice were superovulated by injection of pregnant mare serum gonadotropin (PMSG, 10 IU; Sigma Aldrich Corporation, St. Louis, Mo., USA) followed by human chorionic gonadotropin (hCG, 10 IU; Sigma Aldrich Corporation, St. Louis, Mo., USA) 46-48 hours later. Oocytes were collected from oviducts 15-16 hours after hCG injection, denuded of cumulus cells using hyaluronidase (Irvine Scientific, Santa Ana, Calif., USA), washed with human tubal fluid (HTF; Irvine Scientific, Santa Ana, Calif., USA) supplemented with BSA (fraction V, fatty acid-free; Sigma Aldrich Corporation, St. Louis, Mo., USA), and classified as MII (first polar body in perivitelline space), maturation arrested (germinal vesicle breakdown with no polar body extrusion, or germinal vesicle intact), or degenerated.
as §1
Because of the extremely low yield of oocytes from the aged control females, historical data for oocyte yield from 12-month-old C57BL/6 females (referred to as “Hist 12 M”; from Selesniemi et al., Proc Natl Acad Sci USA. 2011 July 26; 108(30): 12319-12324) can be used as an additional reference point for an aged control group.
In FIG. 45A, the percentage of oocytes assessed at metaphase II is shown. In FIG. 45B, the percentage of oocytes arrested at the germinal vesicle (immature) stage is shown. In FIG. 45C, the percentage of atretic (dead) oocytes is shown.

Take `O=c1cc(-c2ccc(O)c(O)c2)oc2cc(O)cc(O)c12` [luteolin, 2-(3,4-Dihydroxyphenyl)-5,7-dihydroxy-4-chromenone]: in assay [1], the “percentage of oocytes exhibiting abnormal mitochondrial clustering (change)” value is “reduced” and the “abnormal mitochondrial distribution, present in % of oocytes” value is on record as 12%. In addition, in assay [2], the “chromosomal misalignment in MII oocytes (change)” value was “reduced chromosomal misalignment”; the “percentage of spindle abnormalities in MII oocytes (change)” value was “reduced percentage of spindle abnormalities”; the “chromosomal misalignment, present in % of oocytes” value is recorded as 40%; the “spindle abnormalities, present in % of oocytes” value is listed as 32%. In assay [3], the “percentage of mature, metaphase II oocytes retrieved following superovulation” value (from here on “percentage of mature”) is “do not affect”; the “quality of oocytes in aged mice” value was “improve the quality of oocytes”; the oocyte yield result is “increase oocyte yield”.

`O=c1cc(-c2ccc(O)cc2)oc2cc(O)cc(O)c12` [apigenin, 5,7-Dihydroxy-2-(4-hydroxyphenyl)-4H-1-benzopyran-4-one]: in assay [1], the “percentage of oocytes exhibiting abnormal mitochondrial clustering (change)” value was “reduced” and the “abnormal mitochondrial distribution, present in % of oocytes” value came to 7.7%. Further, in assay [2], the “chromosomal misalignment in MII oocytes (change)” value is “reduced chromosomal misalignment”; the “percentage of spindle abnormalities in MII oocytes (change)” value is on record as “reduced percentage of spindle abnormalities”; the “chromosomal misalignment, present in % of oocytes” value was 44%; the “spindle abnormalities, present in % of oocytes” value is given as 32%. In addition, in assay [3], the “percentage of mature” value is on record as “do not affect”; the “quality of oocytes in aged mice” value is “improve the quality of oocytes”; the oocyte yield result is given as “increase oocyte yield”.

`O=C(Nc1ccccc1-c1cn2c(CN3CCNCC3)csc2n1)c1cnc2ccccc2n1` [SRT-1720, N-[2[3-(piperazin-1-ylmethyl)imidazo[2,1-b][1,3]thiazol-6-yl]phenyl]quinoxaline-2-carboxamide]: in assay [1], the “percentage of oocytes exhibiting abnormal mitochondrial clustering (change)” value is given as “reduced” and the “abnormal mitochondrial distribution, present in % of oocytes” value is listed as 6.9%. For the same compound, in assay [2], the “chromosomal misalignment in MII oocytes (change)” value was “reduced chromosomal misalignment”; the “percentage of spindle abnormalities in MII oocytes (change)” value is “reduced percentage of spindle abnormalities”; the “chromosomal misalignment, present in % of oocytes” value stood at 40.9%; the “spindle abnormalities, present in % of oocytes” value came out at 32.8%. In assay [3], the “percentage of mature” value is recorded as “do not affect”; the “quality of oocytes in aged mice” value is on record as “improve the quality of oocytes”; the oocyte yield result is “increase oocyte yield”.
